Literature values, collected in US20190282513A1, “COMPOUND FOR USE IN RELIEF OF PAIN AND METHOD TO PRODUCE THEREOF” (priority 2018, published 2019).

Key:
[1] = taken orally
[2] = compared with ibuprofen

SMILES | anti-inflammatory analgesic effect in cancer-related pain | treatment of chronic pain [1] | anti-inflammatory properties [2]
C=C(C)[C@@H]1CCC(C)=C[C@H]1c1c(O)cc(CCCCC)cc1O [CBD, cannabidiol] | effective anti-inflammatory analgesic | effectively treated chronic pain | 
C/C=C(/C=O)[C@@H](CC=O)CC(=O)OCCc1ccc(O)cc1 [oleocanthal] |  |  | anti-inflammatory properties similar to ibuprofen
